Data reported in US8211935B2, “Heterocyclic derivatives for modulation of calcium channels” (Vertex Pharmaceuticals Incorporated, priority 2004, dated 2012).
Where two headings read alike, the source gives them in different places.

Legend:
[1] = neuropathic pain; cited from earlier work
CaV2.2 = molecular target: T1, CaV2.2 (Homo sapiens, UniProt Q00975); assay: VIPR optical membrane potential assay with electrical stimulation; assay type: cell-based
T1 construct: expressed in transfected cells; host or cells: HEK293
T1 sequence (Q00975 whole entry): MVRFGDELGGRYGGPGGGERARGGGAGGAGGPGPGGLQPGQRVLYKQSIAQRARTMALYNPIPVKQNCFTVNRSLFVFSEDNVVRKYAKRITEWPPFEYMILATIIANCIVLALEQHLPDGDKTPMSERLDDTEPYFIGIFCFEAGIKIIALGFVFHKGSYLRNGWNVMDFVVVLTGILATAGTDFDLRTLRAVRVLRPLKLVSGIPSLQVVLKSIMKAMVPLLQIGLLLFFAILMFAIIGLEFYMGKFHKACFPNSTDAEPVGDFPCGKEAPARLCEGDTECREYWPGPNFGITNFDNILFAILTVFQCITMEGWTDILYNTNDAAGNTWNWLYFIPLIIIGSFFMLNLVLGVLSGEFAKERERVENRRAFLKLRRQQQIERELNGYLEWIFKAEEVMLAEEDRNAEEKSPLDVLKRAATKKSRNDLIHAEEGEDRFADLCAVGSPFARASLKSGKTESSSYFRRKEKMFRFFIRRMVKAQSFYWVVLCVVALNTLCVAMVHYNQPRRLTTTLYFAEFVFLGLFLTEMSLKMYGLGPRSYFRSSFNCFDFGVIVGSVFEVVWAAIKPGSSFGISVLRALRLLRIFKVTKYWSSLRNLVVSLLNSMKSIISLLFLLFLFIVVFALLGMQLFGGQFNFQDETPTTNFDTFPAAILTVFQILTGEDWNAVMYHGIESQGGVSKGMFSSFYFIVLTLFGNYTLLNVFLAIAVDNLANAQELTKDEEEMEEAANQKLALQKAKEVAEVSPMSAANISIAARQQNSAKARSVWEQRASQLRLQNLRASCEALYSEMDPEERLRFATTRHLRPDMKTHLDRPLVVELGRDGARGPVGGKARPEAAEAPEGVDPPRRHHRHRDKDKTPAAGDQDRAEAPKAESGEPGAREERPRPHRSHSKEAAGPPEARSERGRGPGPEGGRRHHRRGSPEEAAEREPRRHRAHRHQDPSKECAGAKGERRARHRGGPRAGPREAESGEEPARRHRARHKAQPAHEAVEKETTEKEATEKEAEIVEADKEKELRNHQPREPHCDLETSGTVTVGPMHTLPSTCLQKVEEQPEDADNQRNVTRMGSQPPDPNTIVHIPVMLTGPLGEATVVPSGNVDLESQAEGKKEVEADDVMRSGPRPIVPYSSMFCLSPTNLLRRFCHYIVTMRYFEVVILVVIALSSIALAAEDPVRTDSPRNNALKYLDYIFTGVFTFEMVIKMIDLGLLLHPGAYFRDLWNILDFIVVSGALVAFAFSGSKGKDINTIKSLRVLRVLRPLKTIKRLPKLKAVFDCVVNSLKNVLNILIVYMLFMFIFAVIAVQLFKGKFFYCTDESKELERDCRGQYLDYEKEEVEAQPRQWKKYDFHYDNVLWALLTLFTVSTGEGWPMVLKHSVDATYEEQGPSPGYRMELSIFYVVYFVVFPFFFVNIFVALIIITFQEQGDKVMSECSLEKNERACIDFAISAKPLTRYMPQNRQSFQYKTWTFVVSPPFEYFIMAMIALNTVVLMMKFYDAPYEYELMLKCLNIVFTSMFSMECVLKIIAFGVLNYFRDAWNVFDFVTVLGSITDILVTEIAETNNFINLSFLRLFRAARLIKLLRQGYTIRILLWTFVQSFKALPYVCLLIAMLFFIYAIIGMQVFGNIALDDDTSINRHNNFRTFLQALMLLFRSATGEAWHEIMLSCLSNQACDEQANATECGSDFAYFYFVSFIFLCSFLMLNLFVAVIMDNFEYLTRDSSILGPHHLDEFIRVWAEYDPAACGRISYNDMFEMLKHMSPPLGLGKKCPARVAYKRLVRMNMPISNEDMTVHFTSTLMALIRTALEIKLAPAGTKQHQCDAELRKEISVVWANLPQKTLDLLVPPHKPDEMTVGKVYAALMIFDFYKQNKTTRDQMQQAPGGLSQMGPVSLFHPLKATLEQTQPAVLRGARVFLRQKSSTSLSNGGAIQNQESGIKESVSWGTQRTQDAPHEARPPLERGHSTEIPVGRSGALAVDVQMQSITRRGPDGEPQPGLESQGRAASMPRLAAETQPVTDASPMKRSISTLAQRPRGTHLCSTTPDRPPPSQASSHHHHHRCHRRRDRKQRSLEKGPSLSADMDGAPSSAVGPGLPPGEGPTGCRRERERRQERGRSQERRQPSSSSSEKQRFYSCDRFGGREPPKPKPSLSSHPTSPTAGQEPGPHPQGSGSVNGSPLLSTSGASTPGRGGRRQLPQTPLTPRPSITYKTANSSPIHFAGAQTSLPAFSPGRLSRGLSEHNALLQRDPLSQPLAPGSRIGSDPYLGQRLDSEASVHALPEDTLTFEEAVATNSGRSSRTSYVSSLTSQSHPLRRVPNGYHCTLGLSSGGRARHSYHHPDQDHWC
T1 sequence (P54284 whole entry partner): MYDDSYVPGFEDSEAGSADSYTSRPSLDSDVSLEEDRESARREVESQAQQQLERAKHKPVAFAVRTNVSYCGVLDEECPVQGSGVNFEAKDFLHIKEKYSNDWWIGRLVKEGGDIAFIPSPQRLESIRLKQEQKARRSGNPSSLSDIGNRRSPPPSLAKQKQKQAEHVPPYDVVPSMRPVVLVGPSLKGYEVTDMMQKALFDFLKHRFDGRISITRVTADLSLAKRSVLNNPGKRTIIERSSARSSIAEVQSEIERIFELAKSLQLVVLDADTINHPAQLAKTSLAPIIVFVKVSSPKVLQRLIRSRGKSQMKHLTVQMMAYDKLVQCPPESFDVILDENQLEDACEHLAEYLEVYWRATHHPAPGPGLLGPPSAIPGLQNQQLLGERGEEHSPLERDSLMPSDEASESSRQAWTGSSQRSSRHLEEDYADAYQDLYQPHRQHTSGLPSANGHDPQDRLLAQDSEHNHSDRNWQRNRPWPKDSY
T1 sequence (P54289 25-946 partner limits assumed): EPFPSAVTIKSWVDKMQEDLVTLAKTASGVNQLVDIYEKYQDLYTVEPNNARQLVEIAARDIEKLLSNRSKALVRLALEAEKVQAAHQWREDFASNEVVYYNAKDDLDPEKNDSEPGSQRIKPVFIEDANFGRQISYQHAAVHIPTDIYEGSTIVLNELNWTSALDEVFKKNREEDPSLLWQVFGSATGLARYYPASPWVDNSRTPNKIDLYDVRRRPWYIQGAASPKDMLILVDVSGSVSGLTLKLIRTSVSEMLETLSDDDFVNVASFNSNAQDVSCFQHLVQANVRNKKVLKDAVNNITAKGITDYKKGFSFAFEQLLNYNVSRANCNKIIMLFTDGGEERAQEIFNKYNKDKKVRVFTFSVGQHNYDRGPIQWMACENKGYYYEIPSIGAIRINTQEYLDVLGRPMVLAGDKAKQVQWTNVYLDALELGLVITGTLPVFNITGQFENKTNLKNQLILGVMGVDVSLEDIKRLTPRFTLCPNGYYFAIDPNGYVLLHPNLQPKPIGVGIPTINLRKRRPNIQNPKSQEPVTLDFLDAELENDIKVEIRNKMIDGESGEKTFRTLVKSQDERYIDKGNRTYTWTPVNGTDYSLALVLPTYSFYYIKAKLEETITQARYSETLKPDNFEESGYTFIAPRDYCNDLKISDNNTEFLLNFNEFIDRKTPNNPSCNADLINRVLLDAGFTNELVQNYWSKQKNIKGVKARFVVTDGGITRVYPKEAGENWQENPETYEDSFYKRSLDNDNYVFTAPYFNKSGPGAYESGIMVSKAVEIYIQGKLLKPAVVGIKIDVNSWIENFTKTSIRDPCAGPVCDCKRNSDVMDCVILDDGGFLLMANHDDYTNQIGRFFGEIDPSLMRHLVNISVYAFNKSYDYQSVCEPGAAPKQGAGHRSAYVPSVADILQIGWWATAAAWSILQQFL
T1 sequence (P54289 947-1103 partner limits assumed): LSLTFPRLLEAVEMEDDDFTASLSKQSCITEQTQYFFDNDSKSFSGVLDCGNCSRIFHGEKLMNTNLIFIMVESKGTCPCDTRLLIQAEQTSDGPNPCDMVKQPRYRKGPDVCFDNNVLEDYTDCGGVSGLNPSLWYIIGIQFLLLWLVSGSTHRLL
Procedure, shortened: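 HEK293 cells stably expressing CaV2.2, stained with CC2-DMPE (10 μM final) and oxonol voltage-sensitive dyes, compound added with BaCl2. Membrane potential response evoked by 3-5 s electrical stimulation. Read as background-subtracted 460/580 nm emission ratio, response R=Rf/Ri, normalized to mibefradil positive and no-drug negative controls.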

[2] = Table 3, biological assay data, read-out: IC50

Structure (SMILES) | IC50 (CaV2.2; [2]) | other results
NCC1(CC(=O)O)CCCCC1 [Gabapentin] |  | patients in whom the drug works [1]: 60%
Cc1c(C(=O)NC2CC2)oc2ccc(S(=O)(=O)N3CCCC(F)(F)C3)cc12 [compound 426] | 5 to 20 µM | 
O=C(NC1CCCCC1)c1cc2cc(S(=O)(=O)N3CCCCCC3)ccc2o1 [compound 427] | < 5 µM | 
O=C(NC1CC1)c1cc2cc(NS(=O)(=O)c3ccccc3)ccc2[nH]1 [compound 428] | < 20 µM | 
O=C(NCC1CCCO1)c1cc2cc(S(=O)(=O)N3CCCCCC3)ccc2o1 (stereo not shown) [compound 429] | 5 to 20 µM | 
CC1CC(C)CN(S(=O)(=O)c2ccc3oc(C(=O)N(C)Cc4ccccc4)cc3c2)C1 (stereo not shown) [compound 430] | < 5 µM | 
Cc1c(C(N)=O)oc2ccc(S(=O)(=O)N3CCC(C)CC3)cc12 [compound 431] | 5 to 20 µM | 
Cc1c(C(=O)N2CCC3(CC2)OCCO3)oc2ccc(S(=O)(=O)N3CCOCC3)cc12 [compound 432] |  | IC50 (CaV2.2): < 20 µM
CC1CCN(S(=O)(=O)c2ccc3oc(C(=O)N(C)Cc4ccccc4)cc3c2)CC1 [compound 433] | < 5 µM | 
CC1CCN(S(=O)(=O)c2ccc3[nH]cc(C(=O)NC4CC4)c3c2)CC1 [compound 434] | < 20 µM | 
CNC(=O)c1cc2cc(S(=O)(=O)N3CC(C)CC(C)C3)ccc2n1C (stereo not shown) [compound 435] | < 5 µM | 
CC1CCN(S(=O)(=O)c2ccc3[nH]c(C(=O)N4CCCCC4C)cc3c2)CC1 (stereo not shown) [compound 436] | < 5 µM | 
CC1CCCCN1C(=O)c1cc2cc(S(=O)(=O)N3CCCCCC3)ccc2[nH]1 (stereo not shown) [compound 437] | < 20 µM | 
CNC(=O)c1cc2cc(S(=O)(=O)N3CCC(C)CC3)ccc2o1 [compound 438] | 5 to 20 µM | 
CCOC(=O)N1CCN(C(=O)c2[nH]c3ccc(S(=O)(=O)N4CC(C)CC(C)C4)cc3c2C)CC1 (stereo not shown) [compound 439] | < 5 µM | 
Cc1c(C(=O)N2CCCCC2)[nH]c2ccc(S(=O)(=O)N3CC(C)CC(C)C3)cc12 (stereo not shown) [compound 440] | < 5 µM | 
Cc1c(C(=O)NCc2ccccc2)oc2ccc(S(=O)(=O)N3CC(C)CC(C)C3)cc12 (stereo not shown) [compound 441] | < 5 µM | 
CNC(=O)c1[nH]c2ccc(S(=O)(=O)N3CCCCCC3)cc2c1C [compound 442] | 5 to 20 µM | 
Cc1c(C(=O)N(C(C)C)C(C)C)oc2ccc(S(=O)(=O)N3CCC(C)CC3)cc12 [compound 443] | 5 to 20 µM | 
CCNC(=O)c1oc2ccc(S(=O)(=O)N(CC)CC)cc2c1C [compound 444] | < 20 µM | 
Cc1c(C(=O)NCCc2ccccc2)oc2ccc(S(=O)(=O)N3CCCC(C)C3)cc12 (stereo not shown) [compound 445] | < 5 µM | 
Cc1c(C(=O)NC2CCCCC2)oc2ccc(S(=O)(=O)N3CCCCCC3)cc12 [compound 446] | 5 to 20 µM | 
Cc1c(C(=O)NC2CC2)oc2ccc(S(=O)(=O)Nc3nccs3)cc12 [compound 447] | < 20 µM | 

Structure (SMILES) | IC50 (CaV2.2; [2]) | other results
CC1CCN(S(=O)(=O)c2ccc3[nH]c(C(=O)NC4CCCCC4)cc3c2)CC1 [compound 448] | 5 to 20 µM | 
Cc1c(C(=O)N2CC(C)OC(C)C2)oc2ccc(S(=O)(=O)N3CCC(C)CC3)cc12 (stereo not shown) [compound 449] | 5 to 20 µM | 
Cc1c(C(=O)NC(C)C)[nH]c2ccc(S(=O)(=O)N3CC(C)CC(C)C3)cc12 (stereo not shown) [compound 450] | 5 to 20 µM | 
Cc1c(C(=O)N2CCCCC2)oc2ccc(S(=O)(=O)N3CC(C)CC(C)C3)cc12 (stereo not shown) [compound 451] | < 5 µM | 
CC1CC(C)CN(S(=O)(=O)c2ccc3c(c2)cc(C(=O)NCc2ccccc2)n3S(=O)(=O)c2ccccc2)C1 (stereo not shown) [compound 452] | < 5 µM | 
Cc1c(C(=O)NC2CC2)oc2ccc(S(=O)(=O)Nc3cccnc3)cc12 [compound 453] | < 20 µM | 
CNC(=O)c1cc2cc(S(=O)(=O)N3CC(C)CC(C)C3)ccc2o1 (stereo not shown) [compound 454] | < 5 µM | 
CC1CC(C)CN(S(=O)(=O)c2ccc3oc(C(=O)NC4CCCCC4)cc3c2)C1 (stereo not shown) [compound 455] | < 5 µM | 
CC1CCN(S(=O)(=O)c2ccc3oc(C(=O)NCC4CCCO4)cc3c2)CC1 (stereo not shown) [compound 456] | 5 to 20 µM | 
Cc1c(C(=O)N2CCCC2)[nH]c2ccc(S(=O)(=O)N3CCC(C)CC3)cc12 [compound 457] | 5 to 20 µM | 
CCN(CC)S(=O)(=O)c1ccc2oc(C(=O)NCC3CCOCC3)c(C)c2c1 [compound 458] | < 20 µM | 
Cc1c(C(=O)NC2CCCCC2)oc2ccc(S(=O)(=O)N3CCCCC3)cc12 [compound 459] | 5 to 20 µM | 
Cc1c(C(=O)N2CCCCC2)oc2ccc(S(=O)(=O)N3CCC(C)CC3)cc12 [compound 460] | 5 to 20 µM | 
CC1CC(C)CN(S(=O)(=O)c2ccc3c(c2)cc(C(=O)N(C)C)n3C)C1 (stereo not shown) [compound 461] | < 5 µM | 
Cc1c(C(=O)N2CCc3ccccc3C2)oc2ccc(S(=O)(=O)N3CCCCC3)cc12 [compound 462] | < 5 µM | 
CCCN(CC1CC1)C(=O)c1cc2cc(S(=O)(=O)N3CC(C)CC(C)C3)ccc2n1C (stereo not shown) [compound 463] | < 5 µM | 
Cc1c(C(=O)N(C)Cc2ccccc2)oc2ccc(S(=O)(=O)N3CCC(C)CC3)cc12 [compound 464] | < 5 µM | 
Cc1c(C(=O)NC2CCCCC2)oc2ccc(S(=O)(=O)N3CCC(C)CC3)cc12 [compound 465] | 5 to 20 µM | 
Cc1c(C(=O)N2CCC(C)CC2)oc2ccc(S(=O)(=O)N3CC(C)CC(C)C3)cc12 (stereo not shown) [compound 466] | < 5 µM | 
Cc1c(C(=O)NCCC2CCOCC2)oc2ccc(S(=O)(=O)N3CCCC(C)C3)cc12 (stereo not shown) [compound 467] | < 5 µM | 
Cc1c(C(=O)N2CCCCC2)oc2ccc(S(=O)(=O)N3CCCCCC3)cc12 [compound 468] | 5 to 20 µM | 
CCNC(=O)c1cc2cc(S(=O)(=O)N3CC(C)CC(C)C3)ccc2o1 (stereo not shown) [compound 469] | < 5 µM | 
CC1CC(C)CN(S(=O)(=O)c2ccc3c(c2)cc(C(=O)N2CCCCC2)n3S(=O)(=O)C(C)C)C1 (stereo not shown) [compound 470] | 5 to 20 µM | 
